# According to PMC4266796 (International Journal for Parasitology: Drugs and Drug …, 2014):
# “Also recorded” adds a separate entry of the source. Counter-ions that a name gives are not always drawn. Like-named read-outs stand apart in the source and are kept apart here.
# How the values were obtained:
# [1] = in vitro; conditions: Aedes albopictus
# [2] = tested on: Wolbachia; conditions: ref Hermans et al., 2001; cited from earlier work
# [3] = tested on: L. sigmodontis; test: In vivo L. sigmodontis screening assay, worm length; design: species or system Litomosoides sigmodontis in BALB/c mice
# [4] = tested on: W. pipientis wAlbB in C6/36 (wAlbB) cells; test: microbe, parasite or virus in culture; format: cell-based, Wolbachia pipientis; conditions: for Dose response behaviour in titration series: 6 doses from 10 to 0.3 μM; for log reduction at 10 µM: Wolbachia pipientis, C6/36, 216 h, read-out: 16S log drop, 10 μM, 9 days, single agent screening
# [5] = tested on: Wolbachia of L. sigmodontis; test: animal or person; format: in vivo, Wolbachia of Litomosoides sigmodontis in BALB/c mice; conditions: for log reduction at 25 mg/kg/day: ip, 240 h, read-out: wLs ftsz log drop in vivo
# [6] = tested on: C6/36 (wAlbB) cells; conditions: 10 μM, luminescence vs vehicle-treated control
# [7] = tested on: O gutturosa Wolbachia; format: cell-based, Wolbachia of Onchocerca gutturosa; conditions: for Reduction in Wolbachia (wsp:gst log drop from vehicle controls): 5 days; for Effect on Wolbachia load (in words): 12.5 to 0.195 μM
# [8] = reduced regimen, 25 MKD for 10 days
smiles,measurement,setting,value
Nc1nc(NC2CC2)c2ncn([C@H]3C=C[C@@H](CO)C3)c2n1 [Abacavir Sulfate],cytotoxicity at 10 µM,[1],0%
O=C(O)c1cn(C2CC2)c2cc(N3CCNCC3)c(F)cc2c1=O [Ciprofloxacin hydrochloride],cytotoxicity at 10 µM,[1],0%
same,Activity in other cell-based Wolbachia assays,[2],no activity
same,Effect on worm length (in words),[3]; standard doses tested,did not reduce
COc1cc(/C=C/C(=O)CC(=O)/C=C/c2ccc(O)c(OC)c2)ccc1O [Curcumin],cytotoxicity at 10 µM,[1],0%
same,Dose response behaviour in titration series,[4],activity only at the highest concentration
CC(=O)Oc1cccc2c1C(=O)c1c(OC(C)=O)cc(C(=O)O)cc1C2=O [Diacerein],cytotoxicity at 10 µM,[1],0%
CCCCC(CC)COC(=O)CC(C(=O)OCC(CC)CCCC)S(=O)(=O)[O-].CCCCC(CC)COC(=O)CC(C(=O)OCC(CC)CCCC)S(=O)(=O)[O-].[Ca+2] (centres unmarked) [Docusate Calcium],wLs ftsz log drop in vivo,[5]; 200 MKD IP for 14 days,1.0 log
same,Cytotoxicity (%),[6],0%
same,Ls length reduction in vivo (%),[3]; 200 MKD IP for 14 days,20.0%
C[C@H]1c2cccc(O)c2C(=O)C2=C(O)[C@]3(O)C(=O)C(C(N)=O)=C(O)[C@@H](N(C)C)[C@@H]3[C@@H](O)[C@@H]21 [Doxycycline],log reduction at 25 mg/kg/day,[5],2.2
same,cytotoxicity at 7 µM,[1],0%
same,16S log drop in vitro,"[4]; doxycycline gold standard, 7 μM, 9 days",1.6 log
same,Reduction in Wolbachia (wsp:gst log drop from vehicle controls),[7]; 0.195 μM,0.77 log
same,Reduction in Wolbachia (wsp:gst log drop from vehicle controls),[7]; 0.781 μM,0.14 log
same,Reduction in Wolbachia (wsp:gst log drop from vehicle controls),[7]; 3.125 μM,0.21 log
same,Reduction in Wolbachia (wsp:gst log drop from vehicle controls),[7]; 12.5 μM,0.80 log
same,Effect on Wolbachia load (in words),[7],reduced the Wolbachia load
CCC1(C)CC(=O)NC1=O (centres unmarked) [Ethosuximide],log reduction at 10 µM,[4],≥ 1.6
CCOc1ccc2nc(S(N)(=O)=O)sc2c1 [Ethoxzolamide],cytotoxicity at 10 µM,[1],19%
COc1ccc2c(c1)c(CC(=O)O)c(C)n2C(=O)c1ccc(Cl)cc1 [Indomethacin],cytotoxicity at 10 µM,[1],0%
same,log reduction at 10 µM,[4],≥ 1.6
NNC(=O)c1ccncc1 [Isoniazid],cytotoxicity at 10 µM,[1],0.3%
CO[C@@H]1[C@@H](O[C@@H]2O[C@H](C)[C@@H](O[C@H]3C[C@@](C)(O)[C@@H](OC(=O)CC(C)C)[C@H](C)O3)[C@H](N(C)C)[C@H]2O)[C@@H](CC=O)C[C@@H](C)[C@@H](O)/C=C/C=C/C[C@@H](C)OC(=O)C[C@H]1O [Kitasamycin],log reduction at 10 µM,[4],≥ 1.6
CCOC(=O)N1CCC(=C2c3ccc(Cl)cc3CCc3cccnc32)CC1 [Loratadine],cytotoxicity at 10 µM,[1],20.7%
same,Effect on worm length (in words),[3]; standard doses tested,no effect
C=C1c2cccc(O)c2C(=O)C2=C(O)[C@]3(O)C(=O)C(C(N)=O)=C(O)[C@@H](N(C)C)[C@@H]3[C@@H](O)[C@H]12 [Methacycline hydrochloride],cytotoxicity at 10 µM,[1],0%
same,Dose response behaviour in titration series,[4],active at all tested concentrations to the same extent
same,log reduction at 10 µM,[4],≥ 1.6
CN(C)c1ccc(O)c2c1C[C@H]1C[C@H]3[C@H](N(C)C)C(O)=C(C(N)=O)C(=O)[C@@]3(O)C(O)=C1C2=O [Minocycline],log reduction at 25 mg/kg/day,[5],3.78
same,Reduction in Wolbachia load compared with the same dose/regimen of doxycycline,"[5]; methacycline 50 MKD, minocycline 25 MKD for 10 days, P < 0.05",significantly greater
same,Activity in the L. sigmodontis mouse model (in words),"[5]; mouse, in vivo",demonstrated activity
same,Effect on Wolbachia load (in words),[5]; [8],significantly reduced
same,Effect on Wolbachia load (in words),[5]; standard doses tested,significantly reduced
same,cytotoxicity at 10 µM,[1],0%
same,log reduction at 10 µM,[4],≥ 1.6
same,Effect on worm length (in words),[3]; standard doses tested,significantly reduced
COc1c(N2C[C@@H]3CCCN[C@@H]3C2)c(F)cc2c(=O)c(C(=O)O)cn(C3CC3)c12 [Moxifloxacin],Activity in the L. sigmodontis mouse model (in words),[5]; levofloxacin and moxifloxacin: data not shown / unpublished observations,active
same,Effect on Wolbachia load (in words),[7],greatly reduced the Wolbachia load at all concentrations tested
CC1(C)NC(=O)N(c2ccc([N+](=O)[O-])c(C(F)(F)F)c2)C1=O [Nilutamide],cytotoxicity at 10 µM,[1],0.01%
NC[C@@H]1O[C@H](O[C@H]2[C@@H](O)[C@H](O[C@@H]3[C@@H](O)[C@H](N)C[C@H](N)[C@H]3O[C@H]3O[C@H](CO)[C@@H](O)[C@H](O)[C@H]3N)O[C@@H]2CO)[C@H](N)[C@@H](O)[C@@H]1O [Paromomycin sulfate],cytotoxicity at 10 µM,[1],0%
same,Dose response behaviour in titration series,[4],showed a dose response
same,log reduction at 10 µM,[4],≥ 1.6
CO[C@H]1/C=C/O[C@@]2(C)Oc3c(C)c(O)c4c(O)c(c(/C=N/N5CCN(C6CCCC6)CC5)c(O)c4c3C2=O)NC(=O)/C(C)=C\C=C\[C@H](C)[C@H](O)[C@@H](C)[C@@H](O)[C@@H](C)[C@H](OC(C)=O)[C@@H]1C [Rifapentine],Activity in the L. sigmodontis mouse model (in words),"[5]; mouse, in vivo",demonstrated activity
same,Effect on Wolbachia load (in words),[5]; standard doses tested,significantly reduced
same,cytotoxicity at 10 µM,[1],20%
same,log reduction at 10 µM,[4],≥ 1.6
same,Reduction in Wolbachia (wsp:gst log drop from vehicle controls),[7]; 0.195 μM,0.99 log
same,Reduction in Wolbachia (wsp:gst log drop from vehicle controls),[7]; 0.781 μM,0.78 log
same,Reduction in Wolbachia (wsp:gst log drop from vehicle controls),[7]; 3.125 μM,0.77 log
same,Reduction in Wolbachia (wsp:gst log drop from vehicle controls),[7]; 12.5 μM,1.04 log
same,Effect on Wolbachia load (in words),[7],greatly reduced the Wolbachia load at all concentrations tested
same,Effect on worm length (in words),[3]; standard doses tested,significantly reduced
C[C@@H]1CN(c2c(F)c(N)c3c(=O)c(C(=O)O)cn(C4CC4)c3c2F)C[C@H](C)N1 [Sparfloxacin],log reduction at 25 mg/kg/day,[5],0.6
same,Activity in the L. sigmodontis mouse model (in words),"[5]; mouse, in vivo",demonstrated activity; also recorded: active
same,Effect on Wolbachia load (in words),[5]; [8],did not significantly affect
same,Effect on Wolbachia load (in words),[5]; standard doses tested,significantly reduced
same,cytotoxicity at 10 µM,[1],0%
same,Effect on worm length (in words),[3]; [8],did not significantly affect
same,Effect on worm length (in words),[3]; standard doses tested,significantly reduced
[H]/N=C(/N)NS(=O)(=O)c1ccc(N)cc1 [Sulfaguanidine],Dose response behaviour in titration series,[4],active at all tested concentrations to the same extent
C[C@H]1COc2c(N3CCN(C)CC3)c(F)cc3c(=O)c(C(=O)O)cn1c23 [levofloxacin],Activity in the L. sigmodontis mouse model (in words),"[5]; mouse, in vivo",inactive
